What follows are molecules tested against T1, THRβ (Homo sapiens, UniProt P10828) (assay: Reporter gene (GAL4-THRβ-LBD / Dual-Glo luciferase) agonist activity assay in HEK293T cells). Details: ratio of reporter gene EC50 values THRα/THRβ.
T1 construct: expressed in transfected cells; host or cells: HEK293T
T1 sequence (P10828 217-461): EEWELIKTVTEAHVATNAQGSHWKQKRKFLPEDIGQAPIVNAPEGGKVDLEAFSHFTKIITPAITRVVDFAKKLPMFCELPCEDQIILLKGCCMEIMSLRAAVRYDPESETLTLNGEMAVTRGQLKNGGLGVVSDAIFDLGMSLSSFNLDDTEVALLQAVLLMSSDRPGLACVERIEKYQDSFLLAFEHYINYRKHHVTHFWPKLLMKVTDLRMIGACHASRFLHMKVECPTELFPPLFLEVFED
Format: cell-based
Source text: Experimental Example 1: Detection of THRα and THRβ Agonist Activities of Compounds Based on Reporter Gene Activity Assay Method
1.1 Construction and Preparation of Plasmids pGAL4-THR-LBD and pG5-Luc
The pGAL4-THRα-LBD and pGAL4-THRβ-LBD plasmids used in the reporter gene assay system were constructed by a conventional molecular cloning method comprising the following main steps: the cDNA sequences of THRα (NM_003250) and THRβ (NM_000461) corresponding to the amino acid sequences of THRα (163-407AA) and THRβ (217-461AA) were inserted into the BamHI and NotI enzyme digestion sites of the pGAL4 vector by the PCR technique respectively to obtain the pGAL4-THRα-LBD and pGAL4-THRβ-LBD plasmids; the pG5-Luc (#E249A) and pRL-TK (#E2241) plasmids were purchased from Promega; the plasmids were transfected into the E. coli DH5α by the CaCl2 method, and after further culture and amplification, the plasmids were purified by Plasmid Extraction Kits (TIANGEN, #D107) to obtain the corresponding plasmid DNAs.
1.2 Co-Transfection of Plasmids into HEK293T Cells and Treatment with Compounds
The HEK293T cells were inoculated into a 96-well plate at a density of 1×10^4/well the day before plasmid transfection. Cell transfection was conducted according to the instructions of the transfection reagent FuGENE® HD (Promega, #E2311). The main steps were as follows: taking one well as an example here, the plasmids pGAL4-THRα-LBD or pGAL4-THRβ-LBD, pG5-Luc, and pRL-TK were added in the proportions of 20 ng, 50 ng, and 5 ng to 10 μL of Opti-MEM™ I medium (Gibco, #11058021) and mixed well; subsequently, 0.25 uL of FuGENE® HD was added, mixed well, and then left at room temperature for 5 min; afterwards, 10 μL of the mixture was added to the cell wells containing 100 μL of culture medium. After cell co-transfection for 6 h, the compound was diluted in a 3-fold gradient with dimethyl sulfoxide at the highest concentration of 1 uM. The compound was added to the cell culture medium at a total of 10 concentrations for treatment for 24 h. There were a total of two duplicate wells for each concentration. Triiodothyronine (T3) was used as the positive control.
1.3 Dual-Glo Luciferase Assay
After the cells were treated with the compound for 24 h, the cells were assayed according to the instructions of Dual-Glo® Luciferase Assay System (Promega, #E2940). The main steps were as follows: 50 μL of culture medium was aspirated from each well and discarded, and then 50 μL of Dual-Glo® Luciferase reagent was added and oscillated at room temperature for 10 min; 80 μL of lysis reaction solution was measured into a white opaque optiPlate-96-well plate, and the luminescence signal value (Firefly-Luc) of the Firefly luciferase was detected using an MD i3x multi-mode microplate reader; 40 μL of Dual-Glo® Stop & Glo® reagent was then added, and oscillated at room temperature for 10 min; the luminescence signal value (Renilla-Luc) of the Renilla luciferase was then detected using an MD i3x multi-mode microplate reader. The Firefly-Luc/Renilla-Luc ratio was used as the activation activity of the compound against THR, and the ratio in the solvent DMSO group was used for normalization; the dose-response curve was fitted with four parameters using the GraphPad Prism6.0 software, and the EC50 value was calculated.

Selectivity (THRα/THRβ) | SMILES
††† (†††: 20 ≥ THRα/β > 10;) | CNC(=O)c1sccc1OCc1c(Br)cc(-n2nc(C(F)F)c(=O)[nH]c2=O)cc1Br [Compound 90]
††† (†††: 20 ≥ THRα/β > 10;) | CNC(=O)c1cscc1OCc1c(Br)cc(-n2nc(C(F)F)c(=O)[nH]c2=O)cc1Br [Compound 91]
†† (††: 10 ≥ THRα/β > 5;) | [2H]C([2H])([2H])NC(=O)c1ccccc1OCc1c(Cl)cc(-n2nc(C(F)F)c(=O)[nH]c2=O)cc1Cl [Compound 104]
† (†: 5 ≥ THRα/β;) | [2H]C([2H])(Oc1ccccc1C(=O)NC)c1c(Cl)cc(-n2nc(C(F)F)c(=O)[nH]c2=O)cc1Cl [Compound 103]
† (†: 5 ≥ THRα/β;) | CNC(=O)c1cc(C)ccc1OCc1c(Br)cc(-n2nc(C(F)F)c(=O)[nH]c2=O)cc1Br [Compound 89]
†† (††: 10 ≥ THRα/β > 5;) | CNC(=O)c1cscc1OCc1c(Cl)cc(-n2nc(C(F)F)c(=O)[nH]c2=O)cc1Cl [Compound 62]
† (†: 5 ≥ THRα/β;) | CNC(=O)c1ccccc1OCc1c(Cl)cc(-n2nc(CF)c(=O)[nH]c2=O)cc1Cl [Compound 93]
† (†: 5 ≥ THRα/β;) | Cc1ccc(OCc2c(Br)cc(-n3nc(C(F)F)c(=O)[nH]c3=O)cc2Br)c(C(N)=O)c1 [Compound 87]
† (†: 5 ≥ THRα/β;) | CNC(=O)c1ccc(OCc2c(Cl)cc(-n3ncc(=O)[nH]c3=O)cc2Cl)cc1 [Compound 76]
† (†: 5 ≥ THRα/β;) | CNC(=O)c1ccccc1OCc1c(Cl)cc(-n2nc(C)c(=O)[nH]c2=O)cc1Cl [Compound 51]
†† (††: 10 ≥ THRα/β > 5;) | NC(=O)c1cc(-n2cccc2)ccc1OCc1c(Cl)cc(-n2ncc(=O)[nH]c2=O)cc1Cl [Compound 70]
† (†: 5 ≥ THRα/β;) | CNC(=O)c1ccccc1OCc1c(C)cc(-n2ncc(=O)[nH]c2=O)cc1Cl [Compound 61]
† (†: 5 ≥ THRα/β;) | Cc1ccc(OCc2c(Cl)cc(-n3ncc(=O)[nH]c3=O)cc2Cl)c(C(N)=O)c1 [Compound 68]
† (†: 5 ≥ THRα/β;) | NC(=O)c1cc(F)ccc1OCc1c(Cl)cc(-n2ncc(=O)[nH]c2=O)cc1Cl [Compound 37]
† (†: 5 ≥ THRα/β;) | CNC(=O)c1ccccc1OCc1c(Cl)cc(-c2nn(C(F)F)c(=O)[nH]c2=O)cc1Cl [Compound 60]
† (†: 5 ≥ THRα/β;) | CNC(=O)c1cc(C)ccc1OCc1c(Cl)cc(-n2ncc(=O)[nH]c2=O)cc1Cl [Compound 84]
† (†: 5 ≥ THRα/β;) | CNC(=O)c1sccc1OCc1c(Cl)cc(-n2ncc(=O)[nH]c2=O)cc1Cl [Compound 47]
† (†: 5 ≥ THRα/β;) | NC(=O)c1cc(C2=CCCC2)ccc1OCc1c(Cl)cc(-n2ncc(=O)[nH]c2=O)cc1Cl [Compound 101]
†† (††: 10 ≥ THRα/β > 5;) | NC(=O)c1cc(C2CCCC2)ccc1OCc1c(Cl)cc(-n2ncc(=O)[nH]c2=O)cc1Cl [Compound 102]

Selectivity (THRα/THRβ) | SMILES
† (†: 5 ≥ THRα/β;) | CCNC(=O)c1ccccc1OCc1c(Cl)cc(-n2ncc(=O)[nH]c2=O)cc1Cl [Compound 43]
†† (††: 10 ≥ THRα/β > 5;) | Cc1ccc(OCc2c(Cl)cc(-n3nc(C(F)F)c(=O)[nH]c3=O)cc2Cl)c(C(N)=O)c1 [Compound 86]
† (†: 5 ≥ THRα/β;) | NC(=O)c1cc(Cl)ccc1OCc1c(Cl)cc(-n2ncc(=O)[nH]c2=O)cc1Cl [Compound 32]
† (†: 5 ≥ THRα/β;) | CNC(=O)c1ccccc1OCc1c(Cl)cc(-n2nc(C(F)(F)F)c(=O)[nH]c2=O)cc1Cl [Compound 52]
†††† (††††: 100 ≥ THRα/β > 20) | Cc1ccc(OCc2c(Br)cc(-n3ncc(=O)[nH]c3=O)cc2Br)c(C(N)=O)c1 [Compound 83]
†††† (††††: 100 ≥ THRα/β > 20) | CNC(=O)c1cc(C)ccc1OCc1c(Br)cc(-n2ncc(=O)[nH]c2=O)cc1Br [Compound 85]
† (†: 5 ≥ THRα/β;) | NC(=O)c1ccccc1OCc1c(Br)cc(-n2nc(C(F)F)c(=O)[nH]c2=O)cc1Br [Compound 57]
† (†: 5 ≥ THRα/β;) | CNC(=O)c1cc(C)ccc1OCc1c(Cl)cc(-n2nc(C(F)F)c(=O)[nH]c2=O)cc1Cl [Compound 88]
†††† (††††: 100 ≥ THRα/β > 20) | NC(=O)c1cc(C2=CCCCC2)ccc1OCc1c(Cl)cc(-n2ncc(=O)[nH]c2=O)cc1Cl [Compound 99]
† (†: 5 ≥ THRα/β;) | CNC(=O)c1cscc1OCc1c(Cl)cc(-n2ncc(=O)[nH]c2=O)cc1Cl [Compound 46]
†† (††: 10 ≥ THRα/β > 5;) | NC(=O)c1cc(C2CC2)ccc1OCc1c(Cl)cc(-n2ncc(=O)[nH]c2=O)cc1Cl [Compound 82]
† (†: 5 ≥ THRα/β;) | CNC(=O)c1ccccc1OCc1c(Cl)cc(-n2nc(C(F)F)c(=O)[nH]c2=O)cc1Br [Compound 105]
† (†: 5 ≥ THRα/β;) | CNC(=O)c1ccccc1OCc1c(Br)cc(-n2ncc(=O)[nH]c2=O)cc1Br [Compound 39]
†† (††: 10 ≥ THRα/β > 5;) | CNC(=O)c1ccccc1OCc1c(Br)cc(-n2nc(C(F)F)c(=O)[nH]c2=O)cc1Br [Compound 56]
† (†: 5 ≥ THRα/β;) | CNC(=O)c1ccccc1OCc1c(Cl)cc(-c2nn(C)c(=O)[nH]c2=O)cc1Cl [Compound 59]
†††† (††††: 100 ≥ THRα/β > 20) | NC(=O)c1cc(C2CCCCC2)ccc1OCc1c(Cl)cc(-n2ncc(=O)[nH]c2=O)cc1Cl [Compound 100]
† (†: 5 ≥ THRα/β;) | NC(=O)c1cc(Br)ccc1OCc1c(Cl)cc(-n2ncc(=O)[nH]c2=O)cc1Cl [Compound 64]
† (†: 5 ≥ THRα/β;) | CNC(=O)c1sccc1OCc1c(Cl)cc(-n2nc(C(F)F)c(=O)[nH]c2=O)cc1Cl [Compound 63]
